Structures can show the parent of a compound that is named as a salt.
Key:
Assay type in all cases: in vivo
[1] = tested on: Inedorooimushi (Oulema oryzae); test: Test (pot test) for controlling inedorooimushi; conditions: larvae released 20 days after treatment, 2 days after release; for mortality at 500 g/ha: 500 g/ha as wettable powder at rice roots
Procedure: The roots of five sampled rice seedlings were washed with water. The wettable powder prepared in accordance with Formulation Example 2 described above was wrapped in the roots to be planted in a Wagner pot of 1/10000 a. After 20 days from the treatment, 3 larvae of inedorooimushi in the late instar larva were released per strain and reared in a plastic greenhouse with a room temperature set at 25° C. On 2 days after the releasing of the insects, the mortality of the insect was calculated.

[2] = tested on: Rice Leaf Beetle (Oulema oryzae); test: Test (root dipping) for controlling rice leaf beetle; conditions: 4 days after treatment; for mortality at 1.6 ppm: root dipping of rice seedlings, late instar larvae released after 2 days
Procedure: (§1) Ten sampled rice seedlings held with urethane in a glass cylinder having an inner diameter of 4.5 cm and a length of 14 cm were set up in a plastic cup containing 40 mL of chemical solution diluted to a desired concentration. After 2 days, 4 larvae of rice leaf beetle in the late instar larva were released in the glass cylinder. The glass cylinder was covered with a lid of medicine paper and kept in a chamber at a constant temperature of 25° C. for rearing.

[3] = tested on: Cotton Aphid (Aphis gossypii); test: Test (foliar spraying) for controlling cotton aphid; conditions: 120 h, 5 days after treatment; for mortality at 200 ppm: foliar spraying on cucumber leaf
Procedure: A cucumber leaf cut to a diameter of 3.5 cm was placed on cotton wool moistened with water. Two adult cotton aphids were released there for offspring for 24 hours and the adult insects were then removed. […] After air-drying, the sample with cotton wool was placed in a plastic cup, which was covered with a lid and kept in a chamber at a constant temperature of 25° C. for rearing.

[4] = tested on: Brown Planthopper (Nilaparvata lugens); test: Test (root dipping) for controlling brown planthopper; conditions: 120 h, root dipping, 5 days after treatment
Procedure: as §1, with “days, 10” for “days, 4”, “of brown planthoppers” for “of rice leaf beetle”, “the third” for “the late”

[5] = tested on: Sweetpotato whitefly (Bemisia tabaci); test: Test (foliar spraying) for controlling sweetpotato whitefly; conditions: 120 h, foliar spraying on cucumber leaf, female adults, 5 days after treatment
Procedure: A cucumber leaf cut to a diameter of 6.0 cm was placed on cotton wool moistened with water. The diluent of the test compounds diluted to 200 ppm in an amount of 2 mL was sprayed onto the cucumber leaves with a spray tower. After air-drying, the cucumber leaf was placed in a plastic cup, and 20 female adult sweetpotato whiteflies were released there. The cup was covered with a lid and kept in a chamber at a constant temperature of 25° C. for rearing.

[6] = tested on: Rice Stem Borer (Chilo suppressalis); test: Test (pot test) for controlling rice stem borer; conditions: 14 days after treatment; for Browning stem ratio (%): 500 g/ha as wettable powder (Formulation Example 2) at rice roots, hatchlings released after 4 days; for Ratio to untreated (%): browning stem ratio relative to untreated, 500 g/ha
Procedure: The roots of five sampled rice seedlings were washed with water. The wettable powder prepared in accordance with Formulation Example 2 described above was wrapped in the roots to be planted in a Wagner pot of 1/10000 a. After 4 days from the treatment, a total of […] of rice stem borer were released per strain and reared in a plastic greenhouse with a room temperature set at 25° C. On 14 days after the treatment, the ratio of browning stem of seedlings for each strain and the ratio to untreated ones were calculated. Double system.

[7] = tested on: Brown Planthopper (Nilaparvata lugens); test: Test (foliar dipping) for controlling brown planthopper; conditions: 120 h, rice seedlings dipped, 5 days after treatment; for mortality at 200 ppm: third instar larvae
Procedure: […] After air-drying, the rice seedlings held with urethane in a glass cylinder having an inner diameter of 4.5 cm and a length of 14 cm were set up in a plastic cup containing 40 mL of water. Larvae of brown planthoppers in the third instar larva were released there. The cylinder was covered with a lid of medicine paper and kept in a chamber at a constant temperature of 25° C. for rearing.

[8] = tested on: Diamondback Moth (Plutella xylostella); test: Test (foliar dipping) for controlling diamondback moth; conditions: 72 h, foliar dipping of cabbage leaf, third instar larvae, 3 days after treatment
Procedure: A cabbage leaf cut to a diameter of 5.0 cm was dipped in the diluent of the test compounds diluted to 200 ppm in an amount of 20 mL and air-dried. After air-drying, the cabbage leaf was placed in a plastic cup, and 10 larvae of diamondback moths in the third instar larva were released there. The cup was covered with a lid and kept in a chamber at a constant temperature of 25° C. for rearing.

[9] = tested on: Southern Yellow thrips (Thrips palmi); test: Test (foliar spraying) for controlling southern yellow thrips; conditions: 72 h; 200 ppm, foliar spraying on cucumber leaf, first instar larvae, 3 days after treatment
Procedure: A cucumber leaf cut to a diameter of 1.5 cm was placed on cotton wool moistened with water. […] After air-drying, 5 larvae of southern yellow thrips in the first instar larva were released there. The sample with cotton wool was placed in a plastic cup, which was covered with a lid and kept in a chamber at a constant temperature of 25° C. for rearing.

[10] = tested on: Brown Winged Green Stink Bug (Plautia stali); test: Test (greenhouse test) for controlling brown winged green stink bug; conditions: 100 ppm sprayed on apple fruit; for Number of abnormal insects / Number of dead insects / Number of normal insects: 5 adults released 7 days after treatment, triple system, 4 days after release; for Total number of sheaths formed by stylet insertion: fruit stained with fuchsine after examination; for Proportion of abnormal insects and dead insects on 4 days after releasing insects (%): insects released 7 days after treatment
Procedure: Using a commercially available hand spray, a chemical solution diluted to a concentration of 100 ppm was sprayed onto an apple fruit (cultivar: Fuji). After air-drying, the apple fruit was placed in a plastic cup, which was allowed to stand still for a specified number of […] in a plastic greenhouse with a room temperature set at 25° C. and with the natural light shining thereon. On 7 days after the treatment, 5 adult brown winged green stink bugs (without distinction between male and female) were released onto the treated fruit. On 4 days after the release of insects, the numbers of death and abnormality were observed and recorded. Triple system. Also, the fruit after examination was immersed in an acidic 0.5% fuchsine solution for 30 minutes, and then washed with water to measure the total number of sapping scars.

[11] = tested on: Brown Planthopper (Nilaparvata lugens); test: Residual effect test (field experiment) for brown planthopper
Procedure: The roots of five sampled rice seedlings were washed with water. Subsequently, 25 mg of the wettable powder prepared in accordance with Formulation Example 2 described above was wrapped in the roots. Each strain was made from the five seedlings. In outdoor artificial paddy fields made from wooden frames having a size of 60 cm by 90 cm, 10 strains were planted, respectively. The artificial paddy field was shielded by an insect screen with a mesh size of 1 mm, so that invasion of harmful insects from the outside was prevented. Into the test system, 40 to 100 adult brown planthoppers were released at fixed intervals so as to cause damage to the rice. On 16 to 51 days after the treatment, the numbers of surviving insects and dead insects were measured to calculate the density index. The density index was obtained from the following expression.

[12] = After 16 days, 25 mg wettable powder (Formulation Example 2) at roots per strain, outdoor artificial paddy field
[13] = After 23 days, 25 mg wettable powder at roots per strain, artificial paddy field
[14] = After 30 days, 25 mg wettable powder at roots per strain, artificial paddy field
[15] = After 37 days, 25 mg wettable powder at roots per strain, artificial paddy field
[16] = After 44 days, 25 mg wettable powder at roots per strain, artificial paddy field
[17] = After 51 days, 25 mg wettable powder at roots per strain, artificial paddy field

Row | SMILES | mortality at 125 g/ha [1] [%] | mortality at 250 g/ha [1] [%] | mortality at 500 g/ha [1] [%] | mortality at 1.6 ppm [2] [%] | mortality at 0.8 ppm ([2]; 96 h, root dipping) [%] | mortality at 0.8 ppm ([3]; foliar spraying) [%] | mortality at 200 ppm [3] [%] | mortality at 200 ppm [5] [%] | Browning stem ratio (%) [6] [%] | Ratio to untreated (%) [6] [%] | mortality at 0.01 ppm [7] [%] | mortality at 200 ppm [7] [%] | mortality at 200 ppm [8] [%] | mortality at 200 ppm [9] [%] | Density index of Nilaparvata lugens [11, 12] | Density index of Nilaparvata lugens [11, 13] | Density index of Nilaparvata lugens [11, 14] | Density index of Nilaparvata lugens [11, 15] | Density index of Nilaparvata lugens [11, 16] | Density index of Nilaparvata lugens [11, 17] | further results
1 | Cc1cccc(-c2c([O-])[n+](CCC#N)c3ccccn3c2=O)c1 [Compound 3, 1-(2-cyanoethyl)-2-hydroxy-4-oxo-3-(3-toluyl)-4H-pyrido[1,2-a]pyrimidinium inner salt] | 33.3 | 50 | 100 | 100 | 100 | 100 | ≥ 80 | ≥ 80 | 0 | 0 | 10 | ≥ 80 | ≥ 80 | ≥ 80 | 7.7 | 0 | 28.4 | 23.8 | 13.0 | 88.5 | mortality at 0.025 ppm ([4]; 0.025 ppm): 50%; mortality at 0.05 ppm ([4]; 0.05 ppm): 60%; mortality at 0.1 ppm ([4]; 0.1 ppm): 100%; mortality at 0.02 ppm [7]: 40%; mortality at 0.05 ppm [7]: 80%; Number of abnormal insects [10]: 7; Number of dead insects [10]: 6; Number of normal insects [10]: 2; Total number of sheaths formed by stylet insertion [10]: 5; Proportion of abnormal insects and dead insects on 4 days after releasing insects (%) [10]: 86.7%
2 | N#CCC[n+]1c(O)c(-c2cccc(C(F)F)c2)c(=O)n2ccccc21 [Compound 48, 1-(2-cyanoethyl)-3-(3-difluoromethylphenyl)-2-hydroxy-4-oxo-4H-pyrido[1,2-a]pyrimidinium inner salt] |  |  |  |  |  |  | ≥ 80 | ≥ 80 |  |  | 0 | ≥ 80 | ≥ 80 |  |  |  |  |  |  |  | mortality at 0.02 ppm [7]: 20%; mortality at 0.05 ppm [7]: 100%
3 | N#CCC[n+]1c([O-])c(-c2cccc(C(F)(F)F)c2)c(=O)n2ccccc21 [Compound 51, 1-(2-cyanoethyl)-2-hydroxy-4-oxo-3-(3-trifluoromethylphenyl)-4H-pyrido[1,2-a]pyrimidinium inner salt] | 83.3 | 100 | 100 | 100 | 100 | 100 | ≥ 80 |  | 10 | 12 |  | ≥ 80 | ≥ 80 | ≥ 80 | 0 | 2.6 | 21.7 | 43.1 | 37.1 | 76.2 | mortality at 0.4 ppm ([2]; 96 h, 0.4 ppm, root dipping): 100%; mortality at 0.1 ppm ([3]; 0.1 ppm, foliar spraying): 100%; Number of abnormal insects [10]: 7; Number of dead insects [10]: 8; Number of normal insects [10]: 0; Total number of sheaths formed by stylet insertion [10]: 1; Proportion of abnormal insects and dead insects on 4 days after releasing insects (%) [10]: 100%
4 | N#CCC[n+]1c([O-])c(-c2cccc(OC(F)(F)F)c2)c(=O)n2ccccc21 [Compound 57, 1-(2-cyanoethyl)-2-hydroxy-4-oxo-3-(3-trifluoromethoxyphenyl)-4H-pyrido[1,2-a]pyrimidinium inner salt] |  |  |  |  |  |  | ≥ 80 |  | 0 | 0 |  | ≥ 80 | ≥ 80 | ≥ 80 | 0 | 0 | 25.4 | 50.4 | 33.0 | 80.7 | 

Source: patent US20180310564A1, “Mesoionic Compound” (Nippon Kayaku Kabushiki Kaisha, priority 2015, published 2018)
